Earlier results on one substance are cited in patent US6841363B2, “Preparation of capped mRNA” (Emory University, priority 2000, dated 2005).

The conditions of data set [1]: intrinsic fluorescence, m7GTP; W56Y compared with wild-type, 'shown therein' (Hsu et al. 2000 / U.S. Pat. No. 6,232,442).
For another data set, the target named is m7GTP. The settings on record: previous study (U.S. Pat. No. 6,232,442); human eIF4E and mutants; read-out: Kd (affinity for m7GTP).

For the substance “wild-type: abundant form of human eIF4E (eukaryotic initiation factor 4E) previously isolated and characterized”, the dissociation constant (Kd) (commonly a measure of binding affinity in units of concentration) in data set [1] is 318 nM; at m7GTP it was 1200 nM.
